We go through 13 compounds from US9708336B2, “Metallo-beta-lactamase inhibitors” (priority 2014, dated 2017).

A word on the IC50: it is the midpoint of a concentration-inhibition curve.

The target of assay [1] is NDM-1 (Klebsiella pneumoniae, UniProt C7C422). Description: biochemical. It counts as biochemical. As to conditions: NDM-1 enzyme, CCF2-FA substrate; read-out: NDM-1 IC50.
For assay [2], the target named is IMP-1 (Serratia marcescens, UniProt P52699). Description: biochemical. It counts as biochemical. To be noted: IMP-1 enzyme, CCF2-FA substrate; read-out: IMP-1 IC50.
IMP-1, sequence (P52699 whole entry, looked up): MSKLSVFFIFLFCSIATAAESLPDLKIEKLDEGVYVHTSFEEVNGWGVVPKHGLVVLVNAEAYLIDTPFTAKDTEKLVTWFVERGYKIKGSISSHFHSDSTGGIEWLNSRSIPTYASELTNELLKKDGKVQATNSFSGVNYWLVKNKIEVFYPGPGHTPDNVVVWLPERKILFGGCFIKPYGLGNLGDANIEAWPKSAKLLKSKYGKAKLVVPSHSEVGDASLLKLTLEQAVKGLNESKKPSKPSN
The target in assay [3] is VIM-1 (Pseudomonas aeruginosa (strain ATCC 15692 / DSM 22644 / CIP 104116 / JCM 14847 / LMG 12228 / 1C / PRS 101 / PAO1), UniProt A0A0F7KYQ8). Description: Enzyme activity: determination of IC50, fluorescence assay with CCF2-FA substrate (VIM-1). It counts as biochemical. As to conditions: CCF2-FA substrate.
In assay [4] the test system is Escherichia coli expressing NDM-1 (CLB30016). Description: Antibiotic potentiation activity: synergistic concentration (MITC95) with imipenem, OD600 growth. The assay is classed as cell-based. To be noted: (CLB30016, NDM-1), 95% growth inhibition. Put shortly:
(§1)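 In 1.1× CAMHB, clinical isolates from overnight plates were challenged with test compound alongside imipenem at an assay concentration of 4 μg/ml, sometimes 1 μg/ml. Plates sat covered at 35 °C for 22–24 h prior to spectrophotometric reading.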

Assay [5] has as its system Klebsiella pneumoniae expressing VIM-1 (IHMA599644). The description is as above. It counts as cell-based. As to conditions: Klebsiella pneumoniae IHMA599644 (VIM-1), 95% growth inhibition. In short, it runs like this: as §1
Assay [6] relates to Serratia marcescens expressing IMP-1 (CL5741). The description is as above. It counts as cell-based. To be noted: Serratia marcescens CL5741 (IMP-1), 95% growth inhibition. In short, it runs like this: as §1
Setting [7] is: VIM-1 enzyme, read-out: VIM-1 IC50.

Like-named read-outs stand apart in the source and are kept apart here.

NDM-1, sequence (C7C422 whole entry, looked up, species assumed): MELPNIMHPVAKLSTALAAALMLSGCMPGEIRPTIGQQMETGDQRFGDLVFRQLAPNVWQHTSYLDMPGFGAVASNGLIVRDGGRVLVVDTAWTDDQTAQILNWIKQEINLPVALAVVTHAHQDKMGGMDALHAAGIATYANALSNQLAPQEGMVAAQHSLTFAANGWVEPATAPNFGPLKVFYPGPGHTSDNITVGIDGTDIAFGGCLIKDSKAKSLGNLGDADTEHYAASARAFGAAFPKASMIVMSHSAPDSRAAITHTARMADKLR

Regarding `NS(=O)(=O)c1c(CC[C@H]2CC[C@H](N)CC2)ccc(-c2ccc(C3CNC3)cc2)c1-c1nnn[nH]1` [Example 599, 4-(2-((1r,4s)-4-aminocyclohexyl)ethyl)-4′-(azetidin-3-yl)-2-(1H-tetrazol-5-yl)-[1,1′-biphenyl]-3-sulfonamide], the concentration for half-maximal inhibition (IC50) in assay [1] was determined as 2.12 nM; in assay [2], 6.43 nM; in assay [3] (VIM-1 IC50, VIM-1 enzyme), 5.33 nM. Moreover, the “Escherichia coli MITC95” value in assay [4] is 1.563 µM. Further, the “Klebsiella pneumoniae MITC95” value in assay [5] came to 3.125 µM. The “Serratia marcescens MITC95” value in assay [6] turned out to be 3.125 µM.

Turning to `NS(=O)(=O)c1c(CC[C@H]2CC[C@@H](N)CC2)ccc(-c2ccc(C3CNC3)cc2)c1-c1nnn[nH]1` [Example 600, 4-(2-((1s,4r)-4-aminocyclohexyl)ethyl)-4′-(azetidin-3-yl)-2-(1H-tetrazol-5-yl)-[1,1′-biphenyl]-3-sulfonamide], the IC50 in assay [1] is 2.56 nM; in assay [2], 43.8 nM; in assay [3] (VIM-1 IC50, VIM-1 enzyme), 0.861 nM. In addition, the “Escherichia coli MITC95” value in assay [4] is 1.563 µM. Moreover, in assay [5], the “Klebsiella pneumoniae MITC95” value was 3.125 µM. Also, the “Serratia marcescens MITC95” value in assay [6] is 6.25 µM.

Regarding `NC[C@H]1CC[C@H](Cc2ccc(-c3ccc(C4CNC4)cc3)c(-c3nnn[nH]3)c2S(N)(=O)=O)CC1` [Example 601, 4-(((1r,4r)-4-(aminomethyl)cyclohexyl)methyl)-4′-(azetidin-3-yl)-2-(1H-tetrazol-5-yl)-[1,1′-biphenyl]-3-sulfonamide], the IC50 in assay [1] was determined as 1.66 nM; in assay [2], 13.1 nM; in assay [3] (VIM-1 IC50, VIM-1 enzyme), 0.587 nM. For the same compound, the “Escherichia coli MITC95” value in assay [4] is 1.563 µM. Besides, the “Klebsiella pneumoniae MITC95” value in assay [5] turned out to be 1.563 µM. Besides, the “Serratia marcescens MITC95” value in assay [6] was 3.125 µM.

For the compound `NC[C@H]1CC[C@@H](Cc2ccc(-c3ccc(C4CNC4)cc3)c(-c3nnn[nH]3)c2S(N)(=O)=O)CC1` [Example 602, 4-(((1s,4s)-4-(aminomethyl)cyclohexyl)methyl)-4′-(azetidin-3-yl)-2-(1H-tetrazol-5-yl)-[1,1′-biphenyl]-3-sulfonamide], the IC50 in assay [1] amounted to 3.95 nM; in assay [2], 21 nM; in assay [3] (VIM-1 IC50, VIM-1 enzyme), 2.47 nM. The “Escherichia coli MITC95” value in assay [4] was found to be 1.563 µM. For the same compound, the “Klebsiella pneumoniae MITC95” value in assay [5] is 1.563 µM. Also, the “Serratia marcescens MITC95” value in assay [6] stood at 3.125 µM.

For the compound `N=C(N)N1CC(c2ccc(-c3ccc(CC4CCNCC4)c(S(N)(=O)=O)c3-c3nn[nH]n3)cc2)C1` [Example 603, 3-[4-[4-(4-piperidylmethyl)-3-sulfamoyl-2-(2H-tetrazol-5-yl)phenyl]phenyl]azetidine-1-carboxamidine], the figures for the IC50 in assay [1], in assay [2] and in assay [3] (setting [7]) were 21.6 nM, 31.9 nM and 4.73 nM, respectively. Besides, the “Escherichia coli MITC95” value in assay [4] was determined as 3.125 µM. In assay [5], the “Klebsiella pneumoniae MITC95” value turned out to be 1.563 µM. In addition, the “Serratia marcescens MITC95” value in assay [6] was 1.563 µM.

Regarding `N=C(N)N1CCC(Cc2ccc(-c3ccc(C4CNC4)cc3)c(-c3nn[nH]n3)c2S(N)(=O)=O)CC1` [Example 604, 4-[[4-[4-(azetidin-3-yl)phenyl]-2-sulfamoyl-3-(2H-tetrazol-5-yl)phenyl]methyl]piperidine-1-carboxamidine], the results for the IC50 in assay [1], in assay [2] and in assay [3] (setting [7]) were 3.31 nM, 41.7 nM and 0.899 nM, respectively. For the same compound, in assay [4], the “Escherichia coli MITC95” value came out at 1.563 µM. In addition, the “Klebsiella pneumoniae MITC95” value in assay [5] is 1.563 µM. The “Serratia marcescens MITC95” value in assay [6] turned out to be 6.25 µM.

As for `NCCN1CCC(Cc2ccc(-c3ccc(C4CNC4)cc3)c(-c3nn[nH]n3)c2S(N)(=O)=O)CC1` [Example 606, 6-[[1-(2-aminoethyl)-4-piperidyl]methyl]-3-[4-(azetidin-3-yl)phenyl]-2-(2H-tetrazol-5-yl)benzenesulfonamide], the IC50 in assay [1] stood at 17.7 nM; in assay [2], 51.4 nM; in assay [3] (VIM-1 IC50, VIM-1 enzyme) it was 1.12 nM. Moreover, the “Escherichia coli MITC95” value in assay [4] came to 0.7813 µM. The “Klebsiella pneumoniae MITC95” value in assay [5] was found to be 1.563 µM. In addition, the “Serratia marcescens MITC95” value in assay [6] amounted to 3.125 µM.

As to `NS(=O)(=O)c1c(CC2CCN(CCO)CC2)ccc(-c2ccc(C3CNC3)cc2)c1-c1nn[nH]n1` [Example 607, 3-[4-(azetidin-3-yl)phenyl]-6-[[1-(2-hydroxyethyl)-4-piperidyl]methyl]-2-(2H-tetrazol-5-yl)benzenesulfonamide], the IC50 is 11.3 nM in assay [1], 42.2 nM in assay [2] and 2.07 nM in assay [3] (setting [7]). Besides, the “Escherichia coli MITC95” value in assay [4] was 1.563 µM. In assay [5], the “Klebsiella pneumoniae MITC95” value was found to be 1.563 µM. Also, the “Serratia marcescens MITC95” value in assay [6] was found to be 3.125 µM.

As for `NS(=O)(=O)c1c(CC2CCNCC2)ccc(-c2ccc(C3CN(CCO)C3)cc2)c1-c1nn[nH]n1` [Example 608, 3-[4-[1-(2-hydroxyethyl)azetidin-3-yl]phenyl]-6-(4-piperidylmethyl)-2-(2H-tetrazol-5-yl)benzenesulfonamide], the IC50 in assay [1] amounted to 30.4 nM; in assay [2] it was 127 nM; in assay [3] (setting [7]) it was 45 nM. Besides, in assay [4], the “Escherichia coli MITC95” value turned out to be 6.25 µM. Further, in assay [5], the “Klebsiella pneumoniae MITC95” value was 6.25 µM. Also, the “Serratia marcescens MITC95” value in assay [6] stood at 6.25 µM.

Regarding `NC(=O)CN1CCC(Cc2ccc(-c3ccc(C4CNC4)cc3)c(-c3nn[nH]n3)c2S(N)(=O)=O)CC1` [Example 609, 2-[4-[[4-[4-(azetidin-3-yl)phenyl]-2-sulfamoyl-3-(2H-tetrazol-5-yl)phenyl]methyl]-1-piperidyl]acetamide], the results for the IC50 in assay [1], in assay [2] and in assay [3] (setting [7]) were 21.3 nM, 83.9 nM and 1.64 nM, respectively. Moreover, in assay [4], the “Escherichia coli MITC95” value was found to be 6.25 µM. In addition, the “Klebsiella pneumoniae MITC95” value in assay [5] is 3.125 µM. Further, the “Serratia marcescens MITC95” value in assay [6] came to 12.5 µM.

Take `Nc1nc2ccc(-c3ccc(CC4CCNCC4)c(S(N)(=O)=O)c3-c3nn[nH]n3)cc2[nH]1` [Example 610, 3-(2-amino-3H-benzo[d]imidazol-5-yl)-6-(piperidin-4-ylmethyl)-2-(2H-tetrazol-5-yl)benzenesulfonamide]: the IC50 in assay [1] worked out at 2.92 nM; in assay [2], 114 nM; in assay [3] (setting [7]), 6.39 nM. Moreover, the “Escherichia coli MITC95” value in assay [4] came out at 0.3906 µM. In assay [5], the “Klebsiella pneumoniae MITC95” value was 1.563 µM. In addition, the “Serratia marcescens MITC95” value in assay [6] was 3.125 µM.

Regarding `Nc1nc2cc(-c3ccc(CC4CNC4)c(S(N)(=O)=O)c3-c3nn[nH]n3)ccc2[nH]1` [Example 611, 3-(2-amino-3H-benzo[d]imidazol-5-yl)-6-(azetidin-3-ylmethyl)-2-(2H-tetrazol-5-yl)benzenesulfonamide], the half-maximal inhibitory concentration (IC50) in assay [1] is 17.7 nM; in assay [2], 344 nM; in assay [3] (setting [7]) it was 20.1 nM. The “Escherichia coli MITC95” value in assay [4] was determined as 0.3906 µM. Moreover, the “Klebsiella pneumoniae MITC95” value in assay [5] was 1.563 µM. Also, in assay [6], the “Serratia marcescens MITC95” value was found to be 12.5 µM.

For `Nc1nc2cccc(-c3ccc(CC4CCNCC4)c(S(N)(=O)=O)c3-c3nn[nH]n3)c2[nH]1` [Example 612, 3-(2-amino-3H-benzo[d]imidazol-4-yl)-6-(piperidin-4-ylmethyl)-2-(2H-tetrazol-5-yl)benzenesulfonamide], the values for the IC50 in assay [1], in assay [2] and in assay [3] (setting [7]) were 1.63 nM, 65.5 nM and 7.23 nM, respectively. The “Escherichia coli MITC95” value in assay [4] was 0.5 µM. Further, in assay [5], the “Klebsiella pneumoniae MITC95” value amounted to 1.281 µM. Besides, the “Serratia marcescens MITC95” value in assay [6] is 2.563 µM.
